# Test results taken from ChEMBL document CHEMBL1201862, “PubChem BioAssay data set” (2004).
#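 Five compound concentrations were applied to cells in 96-well plates for 48 hours; endpoints were derived by simple linear interpolation of the resulting dose-response curve. Abbreviation: GI50, concentration required for 50% inhibition of growth.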 Active and inactive are the calls of the source. Cut-off read from the data, not from the text of the source: active = GI50 up to about 1.1 µM and inactive = higher.
# Tests used:
# Test in all cases: NCI-60 cell line screen, 48 h
# TK-10 = test system: TK-10
# MDA-N = test system: MDA-N
# SF-268 = test system: SF-268
# SK-OV-3 = test system: SK-OV-3
# M14 = test system: M14
# T47D = test system: T47D
# SR = test system: SR
# UO-31 = test system: UO-31
# OVCAR-5 = test system: OVCAR-5
# OVCAR-3 = test system: OVCAR-3
# SNB-19 = test system: SNB-19
# NCI-H23 = test system: NCI-H23
# A549 = test system: A549
# HT-29 = test system: HT-29
# HCT-116 = test system: HCT-116
# OVCAR-4 = test system: OVCAR-4
# CCRF-CEM = test system: CCRF-CEM
# SK-MEL-5 = test system: SK-MEL-5
# UACC-257 = test system: UACC-257
# SNB-75 = test system: SNB-75
# PC-3 = test system: PC-3
# HOP-92 = test system: HOP-92
# NCI-H226 = test system: NCI-H226
# SK-MEL-28 = test system: SK-MEL-28
# MCF7 = test system: MCF7
# NCI-H522 = test system: NCI-H522
# SN12C = test system: SN12C
# K562 = test system: K562
# 786-0 = test system: 786-0
# EKVX = test system: EKVX
# MDA-MB-435 = test system: MDA-MB-435
# SW-620 = test system: SW-620
# NCI-H460 = test system: NCI-H460
# A498 = test system: A498
# ACHN = test system: ACHN
# DU-145 = test system: DU-145
# COLO 205 = test system: COLO 205
# BT-549 = test system: BT-549
# LOX IMVI = test system: LOX IMVI
# SK-MEL-2 = test system: SK-MEL-2
# SF-295 = test system: SF-295
# HL-60 = test system: HL-60
# RPMI-8226 = test system: RPMI-8226
# HOP-62 = test system: HOP-62
# MDA-MB-231 = test system: MDA-MB-231
# IGROV-1 = test system: IGROV-1
# CAKI-1 = test system: CAKI-1
# OVCAR-8 = test system: OVCAR-8
# MOLT-4 = test system: MOLT-4
# Malme-3M = test system: Malme-3M
# UACC-62 = test system: UACC-62
# SF-539 = test system: SF-539
# RXF 393 = test system: RXF 393
# U-251 = test system: U-251
# KM12 = test system: KM12
# Hs-578T = test system: Hs-578T
# HCT-15 = test system: HCT-15
# NCI/ADR-RES = test system: NCI/ADR-RES
smiles,measurement,setting,value
CN(CCC(=O)O)C1=Nc2ccc(Cl)cc2C(c2ccccc2)=[N+]([O-])C1,GI50,TK-10,> 100 µM (inactive)
same,GI50,MDA-N,> 100 µM (inactive)
same,GI50,SF-268,> 100 µM (inactive)
same,GI50,SK-OV-3,> 100 µM (inactive)
same,GI50,M14,> 100 µM (inactive)
same,GI50,T47D,> 100 µM (inactive)
same,GI50,SR,> 100 µM (inactive)
same,GI50,UO-31,> 100 µM (inactive)
same,GI50,OVCAR-5,> 100 µM (inactive)
same,GI50,OVCAR-3,> 100 µM (inactive)
same,GI50,SNB-19,> 100 µM (inactive)
same,GI50,NCI-H23,> 100 µM (inactive)
same,GI50,A549,> 100 µM (inactive)
same,GI50,HT-29,> 100 µM (inactive)
same,GI50,HCT-116,> 100 µM (inactive)
same,GI50,OVCAR-4,72.1 µM (inactive)
same,GI50,CCRF-CEM,> 100 µM (inactive)
same,GI50,SK-MEL-5,> 100 µM (inactive)
same,GI50,UACC-257,> 100 µM (inactive)
same,GI50,SNB-75,> 100 µM (inactive)
same,GI50,PC-3,> 100 µM (inactive)
same,GI50,HOP-92,> 100 µM (inactive)
same,GI50,NCI-H226,> 100 µM (inactive)
same,GI50,SK-MEL-28,> 100 µM (inactive)
same,GI50,MCF7,> 100 µM (inactive)
same,GI50,NCI-H522,> 100 µM (inactive)
same,GI50,SN12C,> 100 µM (inactive)
same,GI50,K562,> 100 µM (inactive)
same,GI50,786-0,> 100 µM (inactive)
same,GI50,EKVX,> 100 µM (inactive)
same,GI50,MDA-MB-435,86.1 µM (inactive)
same,GI50,SW-620,> 100 µM (inactive)
same,GI50,NCI-H460,> 100 µM (inactive)
same,GI50,A498,> 100 µM (inactive)
same,GI50,ACHN,> 100 µM (inactive)
same,GI50,DU-145,> 100 µM (inactive)
same,GI50,COLO 205,> 100 µM (inactive)
same,GI50,BT-549,> 100 µM (inactive)
same,GI50,LOX IMVI,> 100 µM (inactive)
same,GI50,SK-MEL-2,> 100 µM (inactive)
same,GI50,SF-295,> 100 µM (inactive)
same,GI50,HL-60,> 100 µM (inactive)
same,GI50,RPMI-8226,> 100 µM (inactive)
same,GI50,HOP-62,> 100 µM (inactive)
same,GI50,MDA-MB-231,> 100 µM (inactive)
same,GI50,IGROV-1,> 100 µM (inactive)
same,GI50,CAKI-1,78.5 µM (inactive)
same,GI50,OVCAR-8,> 100 µM (inactive)
same,GI50,MOLT-4,> 100 µM (inactive)
same,GI50,Malme-3M,> 100 µM (inactive)
same,GI50,UACC-62,> 100 µM (inactive)
same,GI50,SF-539,> 100 µM (inactive)
same,GI50,RXF 393,> 100 µM (inactive)
same,GI50,U-251,> 100 µM (inactive)
same,GI50,KM12,> 100 µM (inactive)
same,GI50,Hs-578T,> 100 µM (inactive)
same,GI50,HCT-15,> 100 µM
same,GI50,NCI/ADR-RES,> 100 µM (inactive)
O/N=N/c1ccc2ccccc2n1,GI50,TK-10,> 100 µM (inactive)
same,GI50,MDA-N,> 100 µM (inactive)
same,GI50,SF-268,> 100 µM (inactive)
same,GI50,SK-OV-3,> 100 µM (inactive)
same,GI50,M14,> 100 µM (inactive)
same,GI50,T47D,> 100 µM (inactive)
same,GI50,SR,> 100 µM (inactive)
same,GI50,UO-31,> 100 µM (inactive)
same,GI50,OVCAR-5,> 100 µM (inactive)
same,GI50,OVCAR-3,> 100 µM (inactive)
same,GI50,SNB-19,> 100 µM (inactive)
same,GI50,NCI-H23,> 100 µM (inactive)
same,GI50,A549,> 100 µM (inactive)
same,GI50,HT-29,> 100 µM (inactive)
same,GI50,HCT-116,> 100 µM (inactive)
same,GI50,OVCAR-4,> 100 µM (inactive)
same,GI50,CCRF-CEM,> 100 µM (inactive)
same,GI50,SK-MEL-5,> 100 µM (inactive)
same,GI50,UACC-257,> 100 µM (inactive)
same,GI50,SNB-75,75.5 µM (inactive)
same,GI50,PC-3,> 100 µM (inactive)
same,GI50,NCI-H226,> 100 µM (inactive)
same,GI50,SK-MEL-28,> 100 µM (inactive)
same,GI50,MCF7,> 100 µM (inactive)
same,GI50,NCI-H522,> 100 µM (inactive)
same,GI50,SN12C,> 100 µM (inactive)
same,GI50,K562,> 100 µM (inactive)
same,GI50,786-0,> 100 µM (inactive)
same,GI50,EKVX,90.2 µM (inactive)
same,GI50,MDA-MB-435,> 100 µM (inactive)
same,GI50,SW-620,> 100 µM (inactive)
same,GI50,NCI-H460,> 100 µM (inactive)
same,GI50,A498,72.9 µM (inactive)
same,GI50,ACHN,> 100 µM (inactive)
same,GI50,DU-145,> 100 µM (inactive)
same,GI50,COLO 205,> 10 µM (inactive)
same,GI50,BT-549,> 100 µM (inactive)
same,GI50,LOX IMVI,> 100 µM (inactive)
same,GI50,SK-MEL-2,> 100 µM (inactive)
same,GI50,SF-295,> 100 µM (inactive)
same,GI50,HL-60,> 100 µM (inactive)
same,GI50,RPMI-8226,> 100 µM (inactive)
same,GI50,HOP-62,> 100 µM (inactive)
same,GI50,MDA-MB-231,> 100 µM (inactive)
same,GI50,IGROV-1,> 100 µM (inactive)
same,GI50,CAKI-1,> 100 µM (inactive)
same,GI50,OVCAR-8,> 100 µM (inactive)
same,GI50,MOLT-4,> 100 µM (inactive)
same,GI50,UACC-62,> 100 µM (inactive)
same,GI50,SF-539,> 100 µM (inactive)
same,GI50,U-251,> 100 µM (inactive)
same,GI50,KM12,> 100 µM (inactive)
same,GI50,Hs-578T,> 100 µM (inactive)
same,GI50,HCT-15,> 100 µM
same,GI50,NCI/ADR-RES,> 100 µM (inactive)
